Assay results from PubChem BioAssay AID248 (DTP/NCI, 2004).
“And” between values parts separate entries of the source, which are not always exact repeats. Equal values may be shown once. Toxic doses and inconclusive results are not listed. No stated cut-off is given here; in the data, active means T/C of 150% or more; inactive means T/C below 125%.

Test system: L1210 leukemia ip in BDF1 mice, survival T/C
Assay: NCI In Vivo Anticancer Drug Screen. Data for tumor model L1210 Leukemia (intraperitoneal) in B6D2F1 (BDF1) mice
Conditions: endpoint: mean survival time, higher = longer survival
Method: The antitumor activity of compounds was measured in mice bearing transplantable tumors. Survival or tumor size were measured and the results are expressed as the measurement made in the treated group (T) divided by the measurement made in the vehicle treated control group (C). The tumor model used in this assay is L1210 Leukemia (intraperitoneal) in B6D2F1 (BDF1) mice

[1] = dose: 100.0 mg/kg/injection, schedule: Q01DX001 (ip), vehicle: saline
[2] = dose: 200.0 mg/kg/injection, schedule: Q01DX001 (ip), vehicle: saline
[3] = dose: 100.0 mg/kg/injection, schedule: Q01DX009 (ip), vehicle: saline with Tween-80
[4] = dose: 200.0 mg/kg/injection, schedule: Q01DX009 (ip), vehicle: saline with Tween-80
[5] = dose: 400.0 mg/kg/injection, schedule: Q01DX009 (ip), vehicle: saline with Tween-80
[6] = dose: 100.0 mg/kg/injection, schedule: Q01DX009 (ip), vehicle: Klucel (hydroxypropylcellulose) (HPC)
[7] = dose: 200.0 mg/kg/injection, schedule: Q01DX009 (ip), vehicle: Klucel (hydroxypropylcellulose) (HPC)
[8] = dose: 400.0 mg/kg/injection, schedule: Q01DX009 (ip), vehicle: Klucel (hydroxypropylcellulose) (HPC)
[9] = dose: 50.0 mg/kg/injection, schedule: Q01DX009 (ip), vehicle: saline with Tween-80
[10] = dose: 100.0 mg/kg/injection, schedule: Q04DX003 (ip), vehicle: saline with Tween-80
[11] = dose: 200.0 mg/kg/injection, schedule: Q04DX003 (ip), vehicle: saline with Tween-80
[12] = dose: 400.0 mg/kg/injection, schedule: Q04DX003 (ip), vehicle: saline with Tween-80
[13] = dose: 100.0 mg/kg/injection, schedule: Q04DX003 (ip), vehicle: Klucel (hydroxypropylcellulose) (HPC)
[14] = dose: 200.0 mg/kg/injection, schedule: Q04DX003 (ip), vehicle: Klucel (hydroxypropylcellulose) (HPC)
[15] = dose: 400.0 mg/kg/injection, schedule: Q04DX003 (ip), vehicle: Klucel (hydroxypropylcellulose) (HPC)

Measured: T/C

CC1=CC(=O)C(CO)=CC1=O
inactive: dose: 0.09 mg/kg/injection, schedule: Q01DX009 (ip), vehicle: saline with Tween-80 93 % of control | dose: 0.18 mg/kg/injection, schedule: Q01DX009 (ip), vehicle: saline with Tween-80 97 % of control | dose: 0.37 mg/kg/injection, schedule: Q01DX009 (ip), vehicle: saline with Tween-80 104 % of control | dose: 3.0 mg/kg/injection, schedule: Q01DX009 (ip), vehicle: other 105 % of control | dose: 3.0 mg/kg/injection, schedule: Q04DX002 (ip), vehicle: other 107 % of control | dose: 6.0 mg/kg/injection, schedule: Q01DX009 (ip), vehicle: other 91 % of control | dose: 6.0 mg/kg/injection, schedule: Q04DX002 (ip), vehicle: other 96 % of control | dose: 12.5 mg/kg/injection, schedule: Q04DX002 (ip), vehicle: other 86 % of control

O=C1OC2CCCCC2/C1=C/OS(=O)(=O)C(F)(F)F (stereo not drawn)
inactive: dose: 12.5 mg/kg/injection, schedule: Q01DX009 (ip), vehicle: DMSO 105 % of control | dose: 25.0 mg/kg/injection, schedule: Q01DX009 (ip), vehicle: DMSO 103 % of control | dose: 50.0 mg/kg/injection, schedule: Q01DX009 (ip), vehicle: DMSO 110 % of control | dose: 100.0 mg/kg/injection, schedule: Q01DX009 (ip), vehicle: DMSO 110 % of control | dose: 200.0 mg/kg/injection, schedule: Q01DX009 (ip), vehicle: DMSO 117 % of control

CC1([N+](=O)[O-])COP(=O)(NC2CCCC2)OC1 (stereo not drawn)
inactive: dose: 50.0 mg/kg/injection, schedule: Q01DX001 (ip), vehicle: saline 106 % of control | [1] 108 % of control | [2] 102 % of control

O=C(N/N=C/c1ccc2c(c1)OCO2)c1ccncc1
inactive: [3] 102 % of control | [4] 94 % of control | [5] 104 % of control

CC1(C)OC(=O)C(=Cc2cccc3ccc4ccccc4c23)C(=O)O1
inactive: dose: 100.0 mg/kg/injection, schedule: Q01DX001 (ip), vehicle: gum acacia 100 % of control | dose: 200.0 mg/kg/injection, schedule: Q01DX001 (ip), vehicle: gum acacia 97 % of control | dose: 400.0 mg/kg/injection, schedule: Q01DX001 (ip), vehicle: gum acacia 101 % of control

O=c1[nH]c2nc3ccccc3nc2c(=O)n1OS(=O)(=O)c1ccccc1
inactive: [6] 96 % of control | [7] 100 % of control | [8] 98 % of control

CC(C)(C)N=C1OC(=O)c2ccccc21
inactive: [3] 107 % of control | [4] 98 % of control | [5] 94 % of control

C=CC1(CCC(C)C)C(=O)NC(=O)NC1=O
inactive: dose: 75.0 mg/kg/injection, schedule: Q01DX001 (ip), vehicle: saline 91 % of control | dose: 150.0 mg/kg/injection, schedule: Q01DX001 (ip), vehicle: saline 105 % of control | dose: 300.0 mg/kg/injection, schedule: Q01DX001 (ip), vehicle: saline 98 % of control

CNC1(C(N)=O)CCN(Cc2ccccc2)CC1
inactive: [9] 99 % of control | [3] 94 % of control | [10] 95 % of control | [4] 90 % of control | [11] 101 % of control

O=C(Nc1ccccc1)C1C2C=CC(C2)C1C(=O)Nc1ccccc1 (stereo not drawn)
inactive: [10] 93 % of control and 103 % of control | [11] 95 % of control and 87 % of control | [12] 91 % of control

Nc1ccccc1Sc1c(N)cc2c3c(cccc13)C(=O)NC2=O
inactive: [6] 90 % of control | [7] 90 % of control | [8] 94 % of control

Cc1ccc(Cc2cc(=O)[nH]c(=S)[nH]2)cc1
inactive: [13] 98 % of control | [14] 93 % of control | [15] 92 % of control

Cc1nc(N)sc1S(=O)(=O)F
inactive: [1] 96 % of control | [10] 89 % of control | [2] 97 % of control | [11] 97 % of control | dose: 400.0 mg/kg/injection, schedule: Q01DX001 (ip), vehicle: saline 102 % of control | [12] 97 % of control

CP(=S)(c1ccccc1)P(C)(=S)c1ccccc1 (stereo not drawn)
inactive: [6] 99 % of control | [13] 98 % of control | [7] 103 % of control | [14] 101 % of control | [8] 94 % of control | [15] 98 % of control

CCCCCCC[CH2][Sn]1([CH2]CCCCCCC)[O]OC(c2ccccc2)[O]1 (stereo not drawn)
inactive: dose: 6.25 mg/kg/injection, schedule: Q04DX002 (ip), vehicle: saline with Tween-80 102 % of control | dose: 12.5 mg/kg/injection, schedule: Q04DX002 (ip), vehicle: saline with Tween-80 98 % of control | dose: 25.0 mg/kg/injection, schedule: Q04DX002 (ip), vehicle: saline with Tween-80 91 % of control

ClCc1ccc(CCl)c(Cl)c1Cl
inactive: dose: 25.0 mg/kg/injection, schedule: Q01DX009 (ip), vehicle: saline with Tween-80 105 % of control | [9] 97 % of control | [3] 93 % of control

CN(C)c1ccc(Cc2ccc(N(C)C)cc2[N+](=O)[O-])c([N+](=O)[O-])c1
inactive: dose: 50.0 mg/kg/injection, schedule: Q01DX009 (ip), vehicle: Klucel (hydroxypropylcellulose) (HPC) 100 % of control | [6] 98 % of control and 92 % of control | [13] 101 % of control and 102 % of control | [7] 97 % of control and 101 % of control | [14] 102 % of control and 104 % of control | [8] 101 % of control and 92 % of control | [15] 98 % of control and 105 % of control

C#CCOCC(O)C[As](=O)(O)c1ccc(Cl)cc1 (stereo not drawn)
inactive: dose: 6.25 mg/kg/injection, schedule: Q01DX001 (ip), vehicle: saline with Tween-80 101 % of control | dose: 12.5 mg/kg/injection, schedule: Q01DX001 (ip), vehicle: saline with Tween-80 106 % of control

CCCCSC(=N)N
inactive: [1] 94 % of control

COc1ccc(CCOS(=O)(=O)c2ccc(C)cc2)cc1
inactive: [3] 100 % of control | [4] 97 % of control | [5] 100 % of control

BrC(c1ccccc1)C(Br)[n+]1ccccc1 (stereo not drawn)
inactive: dose: 75.0 mg/kg/injection, schedule: Q01DX001 (ip), vehicle: other 107 % of control

C/C=C/C=C/COC(=O)C(C)(C)C
inactive: dose: 50.0 mg/kg/injection, schedule: Q04DX002 (ip), vehicle: saline 103 % of control | dose: 100.0 mg/kg/injection, schedule: Q04DX002 (ip), vehicle: saline 95 % of control and 96 % of control | dose: 200.0 mg/kg/injection, schedule: Q04DX002 (ip), vehicle: saline 98 % of control | dose: 400.0 mg/kg/injection, schedule: Q04DX002 (ip), vehicle: saline 96 % of control and 107 % of control

NC(=O)c1cn[nH]c1/N=N/N1CCCC1C(=O)O (stereo not drawn)
inactive: dose: 100.0 mg/kg/injection, schedule: Q01DX001 (ip), vehicle: saline with Tween-80 100 % of control | [3] 111 % of control | [10] 104 % of control | dose: 200.0 mg/kg/injection, schedule: Q01DX001 (ip), vehicle: saline with Tween-80 107 % of control | [4] 97 % of control | [11] 104 % of control | dose: 400.0 mg/kg/injection, schedule: Q01DX001 (ip), vehicle: saline with Tween-80 102 % of control | [5] 94 % of control | [12] 106 % of control

C/C(=N/NC(N)=S)c1c(C)[nH]c2ccccc12
inactive: dose: 10.0 mg/kg/injection, schedule: Q01DX001 (ip), vehicle: acetone 96 % of control | dose: 20.0 mg/kg/injection, schedule: Q01DX001 (ip), vehicle: acetone 96 % of control | dose: 40.0 mg/kg/injection, schedule: Q01DX001 (ip), vehicle: acetone 95 % of control
